Laboratory results as given in US20090011025A1, “Biotin-Amino Acid Conjugate Useful as a Hydrogelator and Hydrogel Prepared Therefrom” (POSTECH FOUNDATION, priority 2005, published 2009).

Assays:
[1] = Textures of the hydrogels/xerogels by scanning electron microscopy (SEM); assay type: physicochemical; settings: gel at MGC in distilled water, freeze-dried
Method: The textures of the hydrogels formed by the gelators prepared in the Examples were examined as follows, employing a scanning electron microscopy (SEM).
First, gelators 1 to 11 were each dissolved in 1 ml of distilled water in an amount ranging from 0.003 to 0.02 g to reach the corresponding MGC listed in Table 1, and the mixture was heated at 100° C. to form a hydrogel. The hydrogel was frozen at −78° C., and freeze-dried for 6 hours to obtain a xerogel.

[2] = Gelation capability of gelators, stable-to-inversion of container method (minimum gelation concentration, gel stability and clarity); assay type: physicochemical; parameters: key to minimum gelation concentration (MGC): —: no gel formed; settings: for stability of gel (time the gel persisted): in each medium; for stability of gel (time the gel lasted): aqueous media
Method: In order to examine the gelation capability of gelators 1 to 11, the degrees of gelation in various aqueous media were measured as follows, in accordance with the “stable-to-inversion of container” method (Menger, F. M. and Caran, K. L., J. Am. Chem. Soc. 2000, 122, 11679).
Specifically, 0.002 to 0.04 g of each gelator and 1 ml of an aqueous medium (distilled water, 0.9% aqueous NaCl solution, 0.01 M hydrochloric buffer (pH 2.0), 0.05 M phthalate buffer (pH 4.0), 0.08 M MOPSO buffer (pH 7.0) or 0.025 M sodium tetraborate buffer (pH 9.0)) were put into a sealed glass tube (5 mm i.d.), and the mixture was heated at 100° C. until a solution was obtained. The tube was then maintained at room temperature for 5 to 10 min.
Then, the minimum gelation concentration (MGC, wt %), i.e., the lowest concentration of a gelator at which it forms a hydrogel, of each gelator compound was determined, and the result is shown in Table 1.

streptavidin = streptavidin (Streptomyces avidinii, UniProt P22629); experiment: Influence of ligand-receptor interaction (streptavidin) on the gel state of a hydrogel, SEM; settings: 0.002 equivalent of streptavidin, after 1 hour
Method: The influence of ligand-receptor interaction on the gel state of hydrogels was examined as follows.
0.002 g of gelator 9 was added to 1 ml of distilled water, and the mixture was heated at 100° C. to form a hydrogel.

[3] = cited from earlier work
[4] = pH 2 (0.01 M hydrochloric buffer)
[5] = pH 9 (0.025 M sodium tetraborate buffer)

SMILES | structure type of hydrogel (xerogel SEM image) [1] | clarity of gel [2] | minimum gelation concentration (MGC) ([2]; H2O/0.9% NaCl (aq.)) | minimum gelation concentration (MGC) [2, 4] | minimum gelation concentration (MGC) ([2]; pH 4 (0.05 M phthalate buffer)) | minimum gelation concentration (MGC) ([2]; pH 7 (0.08 M MOPSO buffer)) | minimum gelation concentration (MGC) [2, 5] | melting point [°C] | stability of gel (time the gel lasted) [2] | stability of gel (time the gel persisted) [2] | molecules of water immobilized by one molecule of gelator ([2]; at MGC in distilled water) | gel state after addition of streptavidin (streptavidin) | solubility in organic solvents ([3]; organic solvents) | solubility in water ([3]; water)
CC(C)C[C@H](NC(=O)CCCC[C@@H]1SC[C@@H]2NC(=O)N[C@@H]21)C(=O)O [Gelator 2, N-biotinyl-L-leucine] | fibrous structures | translucent to opaque | 1.6 wt % | 1.4 wt % | 1.8 wt % | 2.8 wt % | 3.6 wt % | 209 to 210 |  | about 6 months |  |  |  | 
CCCC[C@H](NC(=O)CCCC[C@@H]1SC[C@@H]2NC(=O)N[C@@H]21)C(=O)O [Gelator 9, N-biotinyl-L-norleucine] |  |  | 0.3 wt % | 0.2 wt % | 0.5 wt % | 1.2 wt % | 1.5 wt % | 172 |  |  | 6,700 molecules of water | disrupted |  | 
O=C(CCCC[C@@H]1SC[C@@H]2NC(=O)N[C@@H]21)N[C@@H](Cc1ccccc1)C(=O)O [Gelator 1, N-biotinyl-L-phenylalanine] | fibrous structures | translucent to opaque | 2.0 wt % | 1.5 wt % | 2.0 wt % | 3.0 wt % | 4.0 wt % | 205 |  | about 6 months |  |  |  | 
O=C(O)CCCC[C@@H]1SC[C@@H]2NC(=O)N[C@@H]21 [biotin] |  |  |  |  |  |  |  |  |  |  |  |  | insolubility | 1.0-0.8 mmol/L
CC(C)[C@H](NC(=O)CCCC[C@@H]1SC[C@@H]2NC(=O)N[C@@H]21)C(=O)O [Gelator 5, N-biotinyl-L-valine] | lamellar structures | opaque | 1.4 wt % | 1.0 wt % | 1.4 wt % | 2.7 wt % | 4.0 wt % | 215 to 216 | about 1 week |  |  |  |  | 
CC[C@H](C)[C@H](NC(=O)CCCC[C@@H]1SC[C@@H]2NC(=O)N[C@@H]21)C(=O)O [Gelator 4, N-biotinyl-L-isoleucine] | lamellar structures | opaque | 1.2 wt % | 1.0 wt % | 1.2 wt % | 2.7 wt % | 3.9 wt % | 230 to 233 | about 1 week |  |  |  |  | 
CSCC[C@H](NC(=O)CCCC[C@@H]1SC[C@@H]2NC(=O)N[C@@H]21)C(=O)O [Gelator 3, N-biotinyl-L-methionine] |  |  | 1.8 wt % | — | — | — | — | 207 |  |  |  |  |  | 

Now from value to molecule, other results behind:

structure type of hydrogel (xerogel SEM image) [1] | clarity of gel [2] | minimum gelation concentration (MGC) ([2]; H2O/0.9% NaCl (aq.)) | minimum gelation concentration (MGC) [2, 4] | minimum gelation concentration (MGC) ([2]; pH 4 (0.05 M phthalate buffer)) | minimum gelation concentration (MGC) ([2]; pH 7 (0.08 M MOPSO buffer)) | minimum gelation concentration (MGC) [2, 5] | melting point [°C] | stability of gel (time the gel lasted) [2] | SMILES | stability of gel (time the gel persisted) [2] | molecules of water immobilized by one molecule of gelator ([2]; at MGC in distilled water) | gel state after addition of streptavidin (streptavidin) | solubility in organic solvents ([3]; organic solvents) | solubility in water ([3]; water)
 |  | 0.6 wt % | 0.8 wt % | 0.8 wt % | 1.7 wt % | 3.5 wt % | 198.5 |  | CCCCCCC(NC(=O)CCCC[C@@H]1SC[C@@H]2NC(=O)N[C@@H]21)C(=O)O (mixture of isomers) [Gelator 11, N-biotinyl-D,L-2-aminocaprylic acid] |  |  |  |  | 
 |  | — | — | — | — | — | 259 to 260 |  | O=C(CCCC[C@@H]1SC[C@@H]2NC(=O)N[C@@H]21)N[C@@H](Cc1ccc(O)cc1)C(=O)O [Gelator 6, N-biotinyl-L-tyrosine] |  |  |  |  | 
 |  | — | — | — | — | — | 160 to 161 |  | O=C(CCCC[C@@H]1SC[C@@H]2NC(=O)N[C@@H]21)N[C@@H](Cc1c[nH]c2ccccc12)C(=O)O [Gelator 7, N-biotinyl-L-tryptophan] |  |  |  |  | 
 |  | 0.8 wt % | 0.6 wt % | 1.0 wt % | 2.0 wt % | 4.0 wt % |  |  | CCCCCC(NC(=O)CCCC[C@@H]1SC[C@@H]2NC(=O)N[C@@H]21)C(=O)O (stereo partly drawn) [Gelator 10, N-biotinyl-D,L-2-aminoenantic acid] |  |  |  |  | 
lamellar structures | opaque | 1.2 wt % | 0.9 wt % | 1.2 wt % | 2.5 wt % | 3.8 wt % | 255 | about 1 week | CCC[C@H](NC(=O)CCCC[C@@H]1SC[C@@H]2NC(=O)N[C@@H]21)C(=O)O [Gelator 8, N-biotinyl-L-norvaline] |  |  |  |  | 
